The results in this text go back to PMC5430874 (Scientific Reports, 2017).

The target in experiment [1] is T1, untagged GPR139(WT) (Homo sapiens, UniProt Q6DWJ6).
T1 construct: expressed in transfected cells; host or cells: HEK293
T1 sequence (Q6DWJ6 1-353): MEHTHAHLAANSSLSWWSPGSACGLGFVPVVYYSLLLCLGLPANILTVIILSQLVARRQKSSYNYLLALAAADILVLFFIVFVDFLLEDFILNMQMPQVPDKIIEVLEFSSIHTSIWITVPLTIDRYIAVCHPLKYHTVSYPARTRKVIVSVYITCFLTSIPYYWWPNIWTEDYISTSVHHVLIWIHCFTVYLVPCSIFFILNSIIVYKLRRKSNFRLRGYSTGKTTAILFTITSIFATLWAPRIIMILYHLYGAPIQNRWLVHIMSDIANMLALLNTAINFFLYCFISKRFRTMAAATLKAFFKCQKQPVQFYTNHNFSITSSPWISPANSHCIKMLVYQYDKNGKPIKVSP
The experiment in a line: Fluo-4 Ca2+-assay, untagged wild-type GPR139 in HEK293. Conditions: untagged WT receptor. The experiment is classed as cell-based. From the text:
(§1) To study the influence of specific amino acids in the predicted binding pocket on receptor function, the desired mutations were introduced into an N-terminally c-myc-tagged wild type human GPR139 (NM_001002911.3) in the pEGFP-N1 vector (BD Biosciences)[32], [33]. As previously described, these plasmids carry the signal peptide of mGluR5 to promote cell surface expression followed by a c-myc epitope to enable detection of total and surface expression by ELISA, followed by an engineered MluI and NotI site for easy insertion of the receptor of interest. Furthermore, the start-codon in the GPR139 sequence was deleted to ensure c-myc-tagging. […]
(§2) The Ca^2+ measurements were preformed using the Fluo-4 NW Calcium Assay Kit (Invitrogen, Molecular Probes, F36206) as previously described. […] Intracellular calcium changes were recorded as indicated on either a NOVOstar (BMG Labtech) at 37 °C with an excitation filter of 485 nm and an emission filters 520 nm or a FlexStation 3 Benchtop Multi-Mode Microplate Reader (Molecular Devices) at 37 °C with an excitation wavelength of 485 nm and emission of 525 nm.
(§3) All pharmacological data have been analyzed by using Prism 6.0 (GraphPad Software Inc., San Diego). […] Changes in potency (pEC50) and span of myc-GPR139(WT) in comparison to untagged GPR139(WT) was statistically analyzed with a paired t-test and significance was accepted at p < 0.05. […]

Experiment [2] deals with T2, GPR139 E108A3x29 +E105A3x32 (Homo sapiens, UniProt Q6DWJ6, E105A/E108A).
T2 construct: mGluR5 signal peptide (N); expressed in transfected cells; host or cells: HEK293
T2 sequence (Q6DWJ6 2-353 E105A/E108A limits assumed): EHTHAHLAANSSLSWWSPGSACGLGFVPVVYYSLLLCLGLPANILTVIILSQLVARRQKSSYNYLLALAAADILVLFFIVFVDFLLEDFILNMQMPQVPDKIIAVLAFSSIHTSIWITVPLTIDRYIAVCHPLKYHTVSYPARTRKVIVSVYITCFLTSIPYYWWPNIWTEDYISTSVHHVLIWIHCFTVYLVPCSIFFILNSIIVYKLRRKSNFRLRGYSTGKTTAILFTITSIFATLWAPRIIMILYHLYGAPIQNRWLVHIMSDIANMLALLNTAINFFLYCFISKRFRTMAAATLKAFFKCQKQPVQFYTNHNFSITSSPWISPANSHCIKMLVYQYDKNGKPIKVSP
Briefly: Fluo-4 Ca2+-assay, GPR139 double mutant E105A_E108A. It is filed as cell-based.
Text: as §1, §2, §3

With `COc1cc(OC)cc(C(=O)NNC(=O)Nc2cccc3ccccc23)c1` [Compound 1a], the EC50 in experiment [1] was 0.772 µM; in experiment [2], 0.2 µM. Further, the Emax in experiment [2] (normalized to buffer (0%) and 8 µM 1a (100%)) came to 196 ± 25%.
